One test in a line: Taste of blends with siamenoside I, findings summarised in the description. The settings on record: blended with siamenoside I in certain ratios.
As to `C[C@H](CC[C@@H](O[C@@H]1O[C@H](CO[C@@H]2O[C@H](CO)[C@@H](O)[C@H](O)[C@H]2O)[C@@H](O)[C@H](O)[C@H]1O)C(C)(C)O)[C@H]1CC[C@@]2(C)C3CC=C4[C@@H](CC[C@H](O[C@@H]5O[C@H](CO)[C@@H](O)[C@H](O)[C@H]5O)C4(C)C)[C@]3(C)[C@H](O)C[C@]12C` (stereo partly drawn) [Mogroside III], the “taste attributes when blended with siamenoside I vs siamenoside I only sweetened beverages” value is “less objectionable taste attributes”.

For `C[C@H](CC[C@@H](O[C@@H]1O[C@H](CO[C@@H]2O[C@H](CO)[C@@H](O)[C@H](O)[C@H]2O)[C@@H](O)[C@H](O)[C@H]1O)C(C)(C)O)[C@H]1CC[C@@]2(C)C3CC=C4[C@@H](CC[C@H](O[C@@H]5O[C@H](CO)[C@@H](O)[C@H](O)[C@H]5O)C4(C)C)[C@]3(C)C(=O)C[C@]12C` (stereo partly drawn) [11-Oxomogroside III], the “taste attributes when blended with siamenoside I vs siamenoside I only sweetened beverages” value is “less objectionable taste attributes”.

For the molecule `C[C@H](CC[C@@H](O[C@@H]1O[C@H](CO[C@@H]2O[C@H](CO)[C@@H](O)[C@H](O)[C@H]2O)[C@@H](O)[C@H](O)[C@H]1O[C@@H]1O[C@H](CO)[C@@H](O)[C@H](O)[C@H]1O)C(C)(C)O)[C@H]1CC[C@@]2(C)C3CC=C4[C@@H](CC[C@H](O[C@@H]5O[C@H](CO[C@@H]6O[C@H](CO)[C@@H](O)[C@H](O)[C@H]6O)[C@@H](O)[C@H](O)[C@H]5O)C4(C)C)[C@]3(C)[C@H](O)C[C@]12C` (stereo partly drawn) [11-Oxomogroside V], the “taste attributes when blended with siamenoside I vs siamenoside I only sweetened beverages” value is “less objectionable taste attributes”.

`C[C@H](CC[C@@H](O[C@@H]1O[C@H](CO[C@@H]2O[C@H](CO)[C@@H](O)[C@H](O)[C@H]2O)[C@@H](O)[C@H](O)[C@H]1O[C@@H]1O[C@H](CO)[C@@H](O)[C@H](O)[C@H]1O)C(C)(C)O)[C@H]1CC[C@@]2(C)C3CC=C4[C@@H](CC[C@H](O[C@@H]5O[C@H](CO)[C@@H](O[C@@H]6O[C@H](CO)[C@@H](O)[C@H](O)[C@H]6O)[C@H](O)[C@H]5O)C4(C)C)[C@]3(C)C(=O)C[C@]12C` (stereo partly drawn) [11-Oxoisomogroside V, 11- Oxoisomogroside V]: the “taste attributes when blended with siamenoside I vs siamenoside I only sweetened beverages” value is recorded as “less objectionable taste attributes”.

Regarding `C[C@H](CC[C@@H](O[C@@H]1O[C@H](CO)[C@@H](O)[C@H](O)[C@H]1O)C(C)(C)O)[C@H]1CC[C@@]2(C)C3CC=C4[C@@H](CC[C@H](O[C@@H]5O[C@H](CO)[C@@H](O)[C@H](O)[C@H]5O)C4(C)C)[C@]3(C)[C@H](O)C[C@]12C` (stereo partly drawn) [Mogroside IIE], the “taste attributes when blended with siamenoside I vs siamenoside I only sweetened beverages” value is “less objectionable taste attributes”.

As for `C[C@H](CC[C@@H](O[C@@H]1O[C@H](CO[C@@H]2O[C@H](CO)[C@@H](O)[C@H](O)[C@H]2O)[C@@H](O)[C@H](O)[C@H]1O[C@@H]1O[C@H](CO)[C@@H](O)[C@H](O)[C@H]1O)C(C)(C)O)[C@H]1CC[C@@]2(C)C3CC=C4[C@@H](CC[C@H](O[C@@H]5O[C@H](CO)[C@@H](O[C@@H]6O[C@H](CO)[C@@H](O)[C@H](O)[C@H]6O)[C@H](O)[C@H]5O)C4(C)C)[C@]3(C)[C@H](O)C[C@]12C` (stereo partly drawn) [Isomogroside V], the “taste attributes when blended with siamenoside I vs siamenoside I only sweetened beverages” value is “less objectionable taste attributes”.

The same test, now with this note: in certain blends.
Turning to `C[C@H](CC[C@@H](O)C(C)(C)O)[C@H]1CC[C@@]2(C)C3CC=C4[C@@H](CC[C@H](O[C@@H]5O[C@H](CO)[C@@H](O)[C@H](O)[C@H]5O)C4(C)C)[C@]3(C)[C@H](O)C[C@]12C` (stereo partly drawn) [Mogroside IE], the “perception of bitterness in blends” value is given as “increase the perception of bitterness”.

As for `C[C@H](CC[C@@H](O[C@@H]1O[C@H](CO)[C@@H](O)[C@H](O)[C@H]1O[C@@H]1O[C@H](CO)[C@@H](O)[C@H](O)[C@H]1O)C(C)(C)O)[C@H]1CC[C@@]2(C)[C@@H]3CC=C4[C@@H](CC[C@H](O)C4(C)C)[C@]3(C)C(=O)C[C@]12C` [11-Oxomogroside IIA], the “perception of bitterness in blends” value is “increase the perception of bitterness”.

As to `C[C@H](CC[C@@H](O[C@@H]1O[C@H](CO[C@@H]2O[C@H](CO)[C@@H](O)[C@H](O)[C@H]2O)[C@@H](O)[C@H](O)[C@H]1O)C(C)(C)O)[C@H]1CC[C@@]2(C)C3CC=C4[C@@H](CC[C@H](O[C@@H]5O[C@H](CO[C@@H]6O[C@H](CO)[C@@H](O)[C@H](O)[C@H]6O)[C@@H](O)[C@H](O)[C@H]5O)C4(C)C)[C@]3(C)[C@H](O)C[C@]12C` (stereo partly drawn) [Mogroside IVA], the “perception of bitterness in blends” value was “increase the perception of bitterness”.

In the case of `C[C@H](CC[C@@H](O[C@@H]1O[C@H](CO[C@@H]2O[C@H](CO)[C@@H](O)[C@H](O)[C@H]2O)[C@@H](O)[C@H](O)[C@H]1O)C(C)(C)O)[C@H]1CC[C@@]2(C)C3CC=C4[C@@H](CC[C@H](O[C@@H]5O[C@H](CO)[C@@H](O)[C@H](O)[C@H]5O)C4(C)C)[C@]3(C)C(=O)C[C@]12C` (stereo partly drawn) [11-Oxomogroside III], the “perception of bitterness in blends” value is listed as “increase the perception of bitterness”.

Consider `C[C@H](CC[C@@H](O[C@@H]1O[C@H](CO)[C@@H](O)[C@H](O)[C@H]1O)C(C)(C)O)[C@H]1CC[C@@]2(C)C3CC=C4[C@@H](CC[C@H](O[C@@H]5O[C@H](CO[C@@H]6O[C@H](CO)[C@@H](O)[C@H](O)[C@H]6O)[C@@H](O)[C@H](O)[C@H]5O)C4(C)C)[C@]3(C)[C@H](O)C[C@]12C` (stereo partly drawn) [Mogroside IIIA2], for which the “perception of bitterness in blends” value was “increase the perception of bitterness”.

For the molecule `C[C@H](CC[C@@H](O[C@@H]1O[C@H](CO[C@@H]2O[C@H](CO)[C@@H](O)[C@H](O)[C@H]2O)[C@@H](O)[C@H](O)[C@H]1O)C(C)(C)O)[C@H]1CC[C@@]2(C)C3CC=C4[C@@H](CC[C@H](O)C4(C)C)[C@]3(C)[C@H](O)C[C@]12C` (stereo partly drawn) [Mogroside IIA1], the “perception of bitterness in blends” value is reported as “increase the perception of bitterness”.

On to `C[C@H](CC[C@@H](O[C@@H]1O[C@H](CO)[C@@H](O)[C@H](O)[C@H]1O[C@@H]1O[C@H](CO)[C@@H](O)[C@H](O)[C@H]1O)C(C)(C)O)[C@H]1CC[C@@]2(C)[C@@H]3CC=C4[C@@H](CC[C@H](O)C4(C)C)[C@]3(C)[C@H](O)C[C@]12C` [Mogroside IIA], for which the “perception of bitterness in blends” value is “increase the perception of bitterness”.

In the case of `C[C@H](CC[C@@H](O[C@@H]1O[C@H](CO)[C@@H](O)[C@H](O)[C@H]1O)C(C)(C)O)[C@H]1CC[C@@]2(C)C3CC=C4[C@@H](CC[C@H](O[C@@H]5O[C@H](CO)[C@@H](O)[C@H](O)[C@H]5O)C4(C)C)[C@]3(C)C(=O)C[C@]12C` (stereo partly drawn) [11-Oxomogroside IIE], the “perception of bitterness in blends” value is on record as “increase the perception of bitterness”.

Regarding `C[C@H](CC[C@@H](O)C(C)(C)O)[C@H]1CC[C@@]2(C)[C@@H]3CC=C4[C@@H](CC[C@H](O[C@@H]5O[C@H](CO[C@@H]6O[C@H](CO)[C@@H](O)[C@H](O)[C@H]6O)[C@@H](O)[C@H](O)[C@H]5O)C4(C)C)[C@]3(C)C(=O)C[C@]12C` [11-Oxomogroside IIA2], the “perception of bitterness in blends” value was “increase the perception of bitterness”.

In the case of `C[C@H](CC[C@@H](O[C@@H]1O[C@H](CO[C@@H]2O[C@H](CO)[C@@H](O)[C@H](O)[C@H]2O)[C@@H](O)[C@H](O)[C@H]1O)C(C)(C)O)[C@H]1CC[C@@]2(C)C3CC=C4[C@@H](CC[C@H](O)C4(C)C)[C@]3(C)C(=O)C[C@]12C` (stereo partly drawn) [11-Oxomogroside IIA1], the “perception of bitterness in blends” value was “increase the perception of bitterness”.

Regarding `C[C@H](CC[C@@H](O)C(C)(C)O)[C@H]1CC[C@@]2(C)[C@@H]3CC=C4[C@@H](CC[C@H](O[C@@H]5O[C@H](CO[C@@H]6O[C@H](CO)[C@@H](O)[C@H](O)[C@H]6O)[C@@H](O)[C@H](O)[C@H]5O)C4(C)C)[C@]3(C)[C@H](O)C[C@]12C` [Mogroside IIA2], the “perception of bitterness in blends” value is “increase the perception of bitterness”.

As to `C[C@H](CC[C@@H](O[C@@H]1O[C@H](CO)[C@@H](O)[C@H](O)[C@H]1O)C(C)(C)O)[C@H]1CC[C@@]2(C)C3CC=C4[C@@H](CC[C@H](O)C4(C)C)[C@]3(C)[C@H](O)C[C@]12C` (stereo partly drawn) [Mogroside IA], the “perception of bitterness in blends” value was “increase the perception of bitterness”.

Staying with this test, now noted: when present in certain amounts in blends with siamenoside I.
In the case of `C[C@H](CC[C@@H](O[C@@H]1O[C@H](CO)[C@@H](O)[C@H](O)[C@H]1O[C@@H]1O[C@H](CO)[C@@H](O)[C@H](O)[C@H]1O)C(C)(C)O)[C@H]1CC[C@@]2(C)C3CC=C4[C@@H](CC[C@H](O[C@@H]5O[C@H](CO)[C@@H](O)[C@H](O)[C@H]5O)C4(C)C)[C@]3(C)[C@H](O)C[C@]12C` (stereo partly drawn) [Mogroside IIIE], the “impact on bitterness in blends with siamenoside I” value (“impact on bitterness in blends” below) is on record as “do not impact bitterness”.

As for 11-oxomogroside I, the “impact on bitterness in blends” value is on record as “do not impact bitterness”.

`C[C@H](CC[C@@H](O[C@@H]1O[C@H](CO[C@@H]2O[C@H](CO)[C@@H](O)[C@H](O)[C@H]2O)[C@@H](O)[C@H](O)[C@H]1O[C@@H]1O[C@H](CO)[C@@H](O)[C@H](O)[C@H]1O)C(C)(C)O)[C@H]1CC[C@@]2(C)[C@@H]3CC=C4[C@@H](CC[C@H](O[C@@H]5O[C@H](CO[C@@H]6O[C@H](CO)[C@@H](O)[C@H](O)[C@H]6O)[C@@H](O)[C@H](O)[C@H]5O)C4(C)C)[C@]3(C)[C@H](O)C[C@]12C` [Mogroside V]: the “impact on bitterness in blends” value was “do not impact bitterness”.

Values taken from US20260223897A1, “SIAMENOSIDE I SWEETENED BEVERAGES WITH MOGROSIDE BLENDS” (The Coca-Cola Company, priority 2023, published 2026).
